Experimental data from patent publication US6355799B1, “Substituted benzene compounds, process for their preparation, and herbicidal and defoliant compositions containing them” (ISK Americas Incorporated, priority 1997, dated 2002).

Key:
Type in all cases: in vivo
[1] = tested on: redroot pigweed (Amaranthus retroflexus, AMARE); assay: Pre-emerge test, greenhouse herbicide activity screening; conditions: pre-emerge, rated 14 days after application, 0 = no damage, 100 = complete death
Procedure, shortened: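 Rating: 0–100 visual injury, 14 DAA. Application: acetone, 187 l/ha, 15–1000 g ai/ha, flat-fan track sprayer with nozzle 40–45 cm above soil or canopy. Post-emerge runs used 0.25% v/v surfactant on 2–3 leaf plants.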

[2] = tested on: barnyardgrass (Echinochloa crus-galli, ECHCG); assay: as above; conditions: pre-emerge, rated 14 days after application, 0 = no damage, 100 = complete death
Procedure, shortened: (§1)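 Sandy loam pots; pre-emerge: sown 1 d pre-spray, surface-watered after, then bottom-watered. Post-emerge: sown 8–21 d before, 2–3 leaf stage, + 0.25% v/v NIS, bottom-watered. Acetone, 187 l/ha track spray, 15–1000 g ai/ha. 0–100 injury score, day 14.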

[3] = tested on: green foxtail (Setaria viridis, SETVI); assay: as above; conditions: pre-emerge, rated 14 days after application, 0 = no damage, 100 = complete death
Procedure, shortened: as §1

[4] = tested on: ivyleaf morningglory (Ipomoea hederacea, IPOHE); assay: as above; conditions: pre-emerge, rated 14 days after application, 0 = no damage, 100 = complete death
Procedure, shortened: as §1

[5] = tested on: johnsongrass (Sorghum halepense, SORHA); assay: as above; conditions: pre-emerge, rated 14 days after application, 0 = no damage, 100 = complete death
Procedure, shortened: as §1

[6] = tested on: lambsquarters (Chenopodium album, CHEAL); assay: as above; conditions: pre-emerge, rated 14 days after application, 0 = no damage, 100 = complete death
Procedure, shortened: as §1

[7] = tested on: large crabgrass (Digitaria sanguinalis, DIGSA); assay: as above; conditions: pre-emerge, rated 14 days after application, 0 = no damage, 100 = complete death
Procedure, shortened: as §1

[8] = tested on: sicklepod (Cassia obtusifolia, CASOB); assay: as above; conditions: pre-emerge, rated 14 days after application, 0 = no damage, 100 = complete death
Procedure, shortened: as §1

[9] = tested on: velvetleaf (Abutilon theophrasti, ABUTH); assay: as above; conditions: pre-emerge, rated 14 days after application, 0 = no damage, 100 = complete death
Procedure, shortened: as §1

[10] = tested on: field corn (Zea mays L., var. Dekalb 535, CORN); assay: Pre-emerge test, crop safety; conditions: pre-emerge, rated 14 days after application, 0 = no damage, 100 = complete death
Procedure, shortened: (§2)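 Compounds in acetone were track-sprayed at 187 l/ha, 15–1000 g ai/ha, onto sandy loam pots. Pre-emerge seeds were sown one day before spraying, with surface watering afterwards. Post-emerge plants were at the 2–3 leaf stage and sprayed with 0.25% v/v non-ionic surfactant. Injury was rated 0–100 at 14 days.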

[11] = tested on: upland rice (Oryza sp., var. Tebonnet, RICE); assay: Pre-emerge test, crop safety; conditions: pre-emerge, rated 14 days after application, 0 = no damage, 100 = complete death
Procedure, shortened: as §2

[12] = tested on: barnyardgrass (Echinochloa crus-galli, ECHCG); assay: Post-emerge test, greenhouse herbicide activity screening; conditions: 14 days after application; for Post-emerge Herbicidal Activity ECHCG: phytotoxicity rating 0-100 (0 no damage, 100 complete death); for phytotoxicity rating ECHCG: post-emerge, rating scale 0-100
Procedure, shortened: as §1

[13] = tested on: common ragweed (Ambrosia artemisizfolia L., AMBEL); assay: as above; conditions: post-emerge, 14 days after application, rating scale 0-100
Procedure, shortened: as §1

[14] = tested on: green foxtail (Setaria viridis, SETVI); assay: as above; conditions: 14 days after application; for Post-emerge Herbicidal Activity SETVI: phytotoxicity rating 0-100 (0 no damage, 100 complete death); for phytotoxicity rating SETVI: post-emerge, rating scale 0-100
Procedure, shortened: as §1

[15] = tested on: ivyleaf morningglory (Ipomoea hederacea, IPOHE); assay: as above; conditions: 14 days after application; for Post-emerge Herbicidal Activity IPOHE: phytotoxicity rating 0-100 (0 no damage, 100 complete death); for phytotoxicity rating IPOHE: post-emerge, rating scale 0-100
Procedure, shortened: as §1

[16] = tested on: johnsongrass (Sorghum halepense, SORHA); assay: as above; conditions: 14 days after application; for Post-emerge Herbicidal Activity SORHA: phytotoxicity rating 0-100 (0 no damage, 100 complete death); for phytotoxicity rating SORHA: post-emerge, rating scale 0-100
Procedure, shortened: as §1

[17] = tested on: lambsquarters (Chenopodium album, CHEAL); assay: as above; conditions: 14 days after application; for Post-emerge Herbicidal Activity CHEAL: phytotoxicity rating 0-100 (0 no damage, 100 complete death); for phytotoxicity rating CHEAL: post-emerge, rating scale 0-100
Procedure, shortened: as §1

[18] = tested on: large crabgrass (Digitaria sanguinalis, DIGSA); assay: as above; conditions: 14 days after application; for Post-emerge Herbicidal Activity DIGSA: phytotoxicity rating 0-100 (0 no damage, 100 complete death); for phytotoxicity rating DIGSA: post-emerge, rating scale 0-100
Procedure, shortened: as §1

[19] = tested on: redroot pigweed (Amaranthus retroflexus, AMARE); assay: as above; conditions: 14 days after application; for Post-emerge Herbicidal Activity AMARE: phytotoxicity rating 0-100 (0 no damage, 100 complete death); for phytotoxicity rating AMARE: post-emerge, rating scale 0-100
Procedure, shortened: as §1

[20] = tested on: sicklepod (Cassia obtusifolia, CASOB); assay: as above; conditions: 14 days after application; for Post-emerge Herbicidal Activity CASOB: phytotoxicity rating 0-100 (0 no damage, 100 complete death); for phytotoxicity rating CASOB: post-emerge, rating scale 0-100
Procedure, shortened: as §1

[21] = tested on: velvetleaf (Abutilon theophrasti, ABUTH); assay: as above; conditions: 14 days after application; for Post-emerge Herbicidal Activity ABUTH: phytotoxicity rating 0-100 (0 no damage, 100 complete death); for phytotoxicity rating ABUTH: post-emerge, rating scale 0-100
Procedure, shortened: as §1

[22] = tested on: field corn (Zea mays L., var. Dekalb 535, CORN); assay: Post-emerge test, crop safety; conditions: 14 days after application; for Post-emerge Herbicidal Activity CORN (crop damage): phytotoxicity rating 0-100 (0 no damage, 100 complete death); for phytotoxicity rating CORN: post-emerge, rating scale 0-100
Procedure, shortened: as §1

[23] = tested on: upland rice (Oryza sp., var. Tebonnet, RICE); assay: Post-emerge test, crop safety; conditions: 14 days after application; for Post-emerge Herbicidal Activity RICE (crop damage): phytotoxicity rating 0-100 (0 no damage, 100 complete death); for phytotoxicity rating RICE: post-emerge, rating scale 0-100
Procedure, shortened: as §1

COc1c(Cl)cc(F)c(-n2c(=O)cc(C(F)(F)F)n(C)c2=O)c1NC(=O)CC#N [2-14]
10: phytotoxicity rating DIGSA ([18]; 63 g ai/ha) | Post-emerge Herbicidal Activity CASOB ([20]; 63 g ai/ha) | Post-emerge Herbicidal Activity CASOB ([20]; 250 g ai/ha) | Post-emerge Herbicidal Activity CORN (crop damage) ([22]; 250 g ai/ha) | Post-emerge Herbicidal Activity RICE (crop damage) ([23]; 63 g ai/ha)
85: phytotoxicity rating AMARE ([19]; 63 g ai/ha)
50: Pre-emerge Herbicidal Activity AMARE (phytotoxicity rating, scale 0-100) ([1]; 63 g ai/ha) | Pre-emerge Herbicidal Activity CHEAL (phytotoxicity rating, scale 0-100) ([6]; 63 g ai/ha) | phytotoxicity rating SETVI ([14]; 250 g ai/ha) | phytotoxicity rating CORN ([22]; 63 g ai/ha)
70: phytotoxicity rating IPOHE ([15]; 63 g ai/ha) | Post-emerge Herbicidal Activity AMARE ([19]; 250 g ai/ha) | phytotoxicity rating CASOB ([20]; 250 g ai/ha)
40: phytotoxicity rating ECHCG ([12]; 250 g ai/ha) | Post-emerge Herbicidal Activity IPOHE ([15]; 63 g ai/ha) | Post-emerge Herbicidal Activity CHEAL ([17]; 250 g ai/ha) | Post-emerge Herbicidal Activity AMARE ([19]; 63 g ai/ha) | phytotoxicity rating CASOB ([20]; 63 g ai/ha)
0: Pre-emerge Herbicidal Activity ECHCG (phytotoxicity rating, scale 0-100) ([2]; 63 g ai/ha) | Pre-emerge Herbicidal Activity ECHCG (phytotoxicity rating, scale 0-100) ([2]; 250 g ai/ha) | Pre-emerge Herbicidal Activity IPOHE (phytotoxicity rating, scale 0-100) ([4]; 63 g ai/ha) | Pre-emerge Herbicidal Activity SORHA (phytotoxicity rating, scale 0-100) ([5]; 63 g ai/ha) | Pre-emerge Herbicidal Activity DIGSA (phytotoxicity rating, scale 0-100) ([7]; 63 g ai/ha) | Pre-emerge Herbicidal Activity CASOB (phytotoxicity rating, scale 0-100) ([8]; 63 g ai/ha) | Pre-emerge crop damage CORN (phytotoxicity rating, scale 0-100) ([10]; 63 g ai/ha) | Pre-emerge crop damage CORN (phytotoxicity rating, scale 0-100) ([10]; 250 g ai/ha) | Pre-emerge crop damage RICE (phytotoxicity rating, scale 0-100) ([11]; 63 g ai/ha) | Post-emerge Herbicidal Activity ECHCG ([12]; 63 g ai/ha) | Post-emerge Herbicidal Activity ECHCG ([12]; 250 g ai/ha) | Post-emerge Herbicidal Activity SETVI ([14]; 63 g ai/ha) | Post-emerge Herbicidal Activity SETVI ([14]; 250 g ai/ha) | Post-emerge Herbicidal Activity SORHA ([16]; 63 g ai/ha) | Post-emerge Herbicidal Activity SORHA ([16]; 250 g ai/ha) | Post-emerge Herbicidal Activity DIGSA ([18]; 63 g ai/ha) | Post-emerge Herbicidal Activity DIGSA ([18]; 250 g ai/ha) | Post-emerge Herbicidal Activity CORN (crop damage) ([22]; 63 g ai/ha)
20: Pre-emerge Herbicidal Activity DIGSA (phytotoxicity rating, scale 0-100) ([7]; 250 g ai/ha) | phytotoxicity rating SETVI ([14]; 63 g ai/ha) | phytotoxicity rating SORHA ([16]; 63 g ai/ha) | phytotoxicity rating SORHA ([16]; 250 g ai/ha) | phytotoxicity rating DIGSA ([18]; 250 g ai/ha)
95: Post-emerge Herbicidal Activity ABUTH ([21]; 250 g ai/ha)
30: Pre-emerge Herbicidal Activity SORHA (phytotoxicity rating, scale 0-100) ([5]; 250 g ai/ha) | Pre-emerge crop damage RICE (phytotoxicity rating, scale 0-100) ([11]; 250 g ai/ha) | phytotoxicity rating ECHCG ([12]; 63 g ai/ha) | Post-emerge Herbicidal Activity CHEAL ([17]; 63 g ai/ha) | Post-emerge Herbicidal Activity RICE (crop damage) ([23]; 250 g ai/ha)
100: Pre-emerge Herbicidal Activity AMARE (phytotoxicity rating, scale 0-100) ([1]; 250 g ai/ha) | Pre-emerge Herbicidal Activity SETVI (phytotoxicity rating, scale 0-100) ([3]; 250 g ai/ha) | Pre-emerge Herbicidal Activity IPOHE (phytotoxicity rating, scale 0-100) ([4]; 250 g ai/ha) | Pre-emerge Herbicidal Activity CHEAL (phytotoxicity rating, scale 0-100) ([6]; 250 g ai/ha) | Pre-emerge Herbicidal Activity ABUTH (phytotoxicity rating, scale 0-100) ([9]; 250 g ai/ha) | phytotoxicity rating CHEAL ([17]; 250 g ai/ha) | phytotoxicity rating AMARE ([19]; 250 g ai/ha) | phytotoxicity rating ABUTH ([21]; 63 g ai/ha) | phytotoxicity rating ABUTH ([21]; 250 g ai/ha)
90: Pre-emerge Herbicidal Activity ABUTH (phytotoxicity rating, scale 0-100) ([9]; 63 g ai/ha) | phytotoxicity rating AMBEL ([13]; 250 g ai/ha) | phytotoxicity rating IPOHE ([15]; 250 g ai/ha) | Post-emerge Herbicidal Activity ABUTH ([21]; 63 g ai/ha) | phytotoxicity rating RICE ([23]; 250 g ai/ha)
60: Pre-emerge Herbicidal Activity SETVI (phytotoxicity rating, scale 0-100) ([3]; 63 g ai/ha) | Pre-emerge Herbicidal Activity CASOB (phytotoxicity rating, scale 0-100) ([8]; 250 g ai/ha) | phytotoxicity rating AMBEL ([13]; 63 g ai/ha) | phytotoxicity rating CORN ([22]; 250 g ai/ha) | phytotoxicity rating RICE ([23]; 63 g ai/ha)
80: Post-emerge Herbicidal Activity IPOHE ([15]; 250 g ai/ha) | phytotoxicity rating CHEAL ([17]; 63 g ai/ha)
